System: yeast BY4741 (WT)
Test: Micromanipulation assay of replicative lifespan (RLS)
Type: cell-based, Saccharomyces cerevisiae
Conditions: 25 μM; FIG. 1F
Method: The micromanipulation of the yeast cells was carried out as follows. Prior to analysis, yeast strains BY4741 (WT), BY4741-fob1Δ (fob1Δ), or BY4741-sir2Δfob1Δ (sir2Δfob1Δ) were plated onto fresh solid YEPD medium and grown at 30° C. for two days. Then, individual colonies were picked and grown in solid YEPD media containing: (1) dimethyl sulfoxide (DMSO), (2) 10, 25, or 50 μM PN6, or (3) 25 μM β-sitosterol at 30° C. overnight, and a small number of yeast cells were then plated onto a fresh YEPD plate for lifespan analysis. After overnight growth on the lifespan plates, the cells were arrayed on the plate using a micromanipulator and allowed to grow for approximately 3 hours. Virgin daughter cells were selected and subjected to lifespan analysis. In the lifespan experiments, the plates were incubated at 30° C. during the day and stored at 4° C. overnight. Each experiment consisted of more than 50 mother cells and was independently repeated three times.

SMILES: CC[C@H](CC[C@@H](C)[C@H]1CC[C@H]2[C@@H]3CC=C4C[C@@H](O)CC[C@]4(C)[C@H]3CC[C@]12C)C(C)C [3-sitosterol, β-sitosterol]
- extension of the RLS of yeast: not seen

Source: patent US20250009763A1, “METHODS FOR EXTENDING LIFESPAN AND/OR DELAYING AGING” (priority 2023, published 2025)
